Results as given in patent US20230135501A1, “GENE THERAPY” (UCL BUSINESS LTD, priority 2020, published 2023).

What was measured:
Type in all cases: cell-based
[1] = test system: porcine primary RPE cells; test: POS-induced pseudopod/contractile cup formation, pMLC and POS centring at 30 min in primary porcine RPE cells
Excerpt: Fixation and processing cells and mouse tissue sections was as previously described in Zihni, C. et al (2017). The following antibodies were used: RPE65 mouse monoclonal (Millipore) 1/300 for immuno-fluorescence; p-MLC S19, mouse monoclonal (Cell Signaling Technology) immunofluorescence 1/100 and immunoblotting 1/1000; Dbl(3), rabbit polyclonal (Santa Cruz Biotechnology) immunofluorescence 1/200; MRCKβ, rabbit polyclonal (Santa Cruz Biotechnology) immunofluorescence 1/200 and immunoblotting 1/500; anti-Cdc42-GTP mouse monoclonal (NewEast Biosciences) immunofluorescence 1/50; N-WASP, rabbit polyclonal (Santa Cruz Biotechnology) immunofluorescence and immunoblotting 1/1000; MerTK rabbit monoclonal (Abcam 52968) immunofluorescence 1/100; Integrin αVβ5, mouse monoclonal (Clone P1F6) (Abcam 24694) immunofluorescence 1/100; pFAK Y397, rabbit polyclonal (Invitrogen) immunofluorescence 1/100; pSrc Y416, rabbit polyclonal (Cell Signaling Technology) immunofluorescence 1/100; Phalloidin-Atto 647 reagent was obtained from Sigma and diluted 1/1000. Affinity-purified and cross-adsorbed Alexa488-, Cy3- and Cy5-labelled donkey anti-mouse, rabbit, or goat secondary antibodies were from Jackson ImmunoResearch Laboratories (1/300 diluted from 50% glycerol stocks). Affinity-purified HRP-conjugated goat anti mouse and rabbit, and donkey anti goat secondary antibodies 1/5000 were also from Jackson ImmunoResearch Laboratories (1/5000 diluted from 50% glycerol stocks). For immunofluorescence analysis cells and tissues were mounted using Prolong Gold antifade reagent (Life technologies) and imaging was performed using Zeiss 700 and 710 confocal microscopes and a 64× oil lens/NA1.4. Images were processed using Zeiss Zen 2009 and Adobe Photoshop CS5 and 10 software. Co-immunoprecipitation and immunoblotting were carried out using methods previously described and were repeated at least three times.

[2] = test system: Primary porcine RPE; test: POS/Gas-6 stimulated pseudopod assembly in serum-free primary porcine RPE; details: serum-free medium 4 h, 30 min stimulation with POS-FITC, with Gas-6
Method: Primary porcine RPE was cultured in serum-free medium, to eliminate effects of MerTK ligands, for 4 h followed by treatment with either N-WASP or MRCK inhibitor and a 30 min stimulation with POS-FITC in the absence or presence of Gas-6, which links MerTK to POS.

[3] = test system: porcine primary RPE cells; test: POS phagocytosis (internalization) in primary porcine RPE cells; design: ability of RPE cells to internalize POS (confocal z-sections): dose or concentration left out as unconfirmed
Excerpt: Wilcoxon tests also were used where indicated.
The inventors next asked whether MRCKβ is directly involved in POS internalization using porcine primary RPE cells. […] MRCK was not required for POS to attach to the RPE, indicating integrin αVβ5-POS binding was not affected (FIGS. 2b and 2f). POS binding stimulates the formation of extended pseudopods that retract with internalization of POS. […] Thus, MRCKβ controls POS-induced membrane remodelling during phagocytic cup formation and particle internalization.

Molecule: Cc1ccc2c(c1)C(=O)C1(O)CCN(c3ccccc3)C1=N2 (stereo not shown) [blebbistatin, Blebbistatin]
- pseudopod/cup organization ([1]; Blebbistatin used at 10 μM): disorganised pseudopods
- POS centring at pseudopods/cups ([1]; POS for 30 minutes): loss of efficient POS centring

Molecule: CN(C)C[C@H](O)Cn1c2ccc(Br)cc2c2cc(Br)ccc21 (racemic) [Wiskostatin]
- pMLC activity/staining at pseudopods/cups ([1]; POS for 30 minutes): reduced
- less F-actin in pseudopods when compared to control cells ([1]; Wiskostatin used at 5 μM): approx. 50%
- number of cells forming normal pseudopods ([1]; Wiskostatin used at 5 μM): drastic reduction

Molecule: O=C(Nc1cn[nH]c1-c1ccccn1)c1nn(C2CCNCC2)cc1Cl [BDP5290]
- POS centring at pseudopods/cups ([1]; POS for 30 minutes): un-centred POS
- efficiency of POS binding to RPE cells ([1]; POS for 30 minutes): unaltered
- pMLC activity/staining at pseudopods/cups ([1]; POS for 30 minutes): lack pMLC activity
- MLC phosphorylation after blebbistatin washout ([1]; washout of blebbistatin in the presence of the MRCK inhibitor): inhibition of MLC phosphorylation
- POS-dependent pseudopod assembly [2]: did not inhibit
- phagocytosis of GOLD-labelled POS (transmission electron microscopy) ([3]; GOLD-labelled POS, TEM): inhibition of phagocytosis
- ability of RPE cells to internalize POS (confocal z-sections) ([3]; POS-FITC 1 h followed by 2 h chase): strongly inhibited

B1: Gas-6: growth arrest-specific 6, soluble protein which links MerTK to POS (protein, UniProt Q14393 31-678, looked up)
Growth arrest-specific …: ALLPAREATQFLRPRQRRAFQVFEEAKQGHLERECVEELCSREEAREVFENDPETDYFYPRYLDCINKYGSPYTKNSGFATCVQNLPDQCTPNPCDRKGTQACQDLMGNFFCLCKAGWGGRLCDKDVNECSQENGGCLQICHNKPGSFHCSCHSGFELSSDGRTCQDIDECADSEACGEARCKNLPGSYSCLCDEGFAYSSQEKACRDVDECLQGRCEQVCVNSPGSYTCHCDGRGGLKLSQDMDTCEDILPCVPFSVAKSVKSLYLGRMFSGTPVIRLRFKRLQPTRLVAEFDFRTFDPEGILLFAGGHQDSTWIVLALRAGRLELQLRYNGVGRVTSSGPVINHGMWQTISVEELARNLVIKVNRDAVMKIAVAGDLFQPERGLYHLNLTVGGIPFHEKDLVQPINPRLDGCMRSWNWLNGEDTTIQETVKVNTRMQCFSVTERGSFYPGSGFAFYSLDYMRTPLDVGTESTWEVEVVAHIRPAADTGVLFALWAPDLRAVPLSVALVDYHSTKKLKKQLVVLAVEHTALALMEIKVCDGQEHVVTVSLRDGEATLEVDGTRGQSEVSAAQLQERLAVLERHLRSPVLTFAGGLPDVPVTSAPVTAFYRGCMTLEVNRRLLDLDEAAYKHSDITAHSCPPVEPAAA
- POS-dependent pseudopod assembly [2]: sharp increase
